{"source": "patent US10799467B2", "about": "“Use of the phytocannabinoid cannabidivarin (CBDV) in the treatment of epilepsy” (GW Pharma Limited, priority 2010, dated 2020)", "key": {"[1]": {"test": "Observation of side effects in all experiments with isolated CBDV and CBDV BDS", "type": "in vivo", "conditions": "all experiments using isolated CBDV and CBDV BDS"}, "MES-induced seizure": {"tested_on": "MES-induced seizure", "test": "Maximal electroshock seizure (MES) model of epilepsy", "type": "in vivo, Mouse/ICR", "conditions": "for Incidence of Tonic convulsion: Table 10.2, 10 mice per group, vehicle 9/10", "experimental": "The vehicle used in this study was 2:1:17 (ethanol:Cremophor:0.9% ^w/v, NaCl). The test compounds used were cannabidiol (CBD) and cannabidivarin (CBDV). These were made to a solution at the highest concentration; these were then dissolved in ethanol before combination with Cremophor and 0.9% NaCl in the proportion described above. The CBD or CBDV were administered intraperitoneally at a volume of 10 ml/kg body weight. The SAED valproic acid (VBA) was dissolved in saline.\nAnimal Species/Strain: Mouse/ICR, Microbiological grade: SPF, Supplier: SLC Japan, Inc. […] Temperature: 23±2° C., Humidity: 60±10%, Light conditions: 7 AM to 7 PM for the light period, 7 PM to 7 AM for the dark period. Chow and water: Free access to CRF-1 (Oriental Yeast Co, Ltd) and tap water.\nOne day before each experiment, mice were weighed and randomized into several groups in each test. On the morning of the experiment day, body weight was measured in order to calculate the administration volume of each animal. Vehicle, CBD, CBDV or valproic acid sodium salt was interperitoneally administered 30 minutes before electric stimuli. Maximal electroshock seizures (MES) in mice was induced by a stimulator (UGO BASILE ECT UNIT 7801, Italia) using a current of 30 mA delivered with a pulse frequency of 100 Hz for 200 msec through earlap electrodes.\nAll statistical analyses were performed using SAS Software for Windows, Release 9.1 (SAS Institute Japan). The difference of the number (hindlimb extension or deaths) in each group was assessed using two-tailed Fisher's exact test."}, "[2]": {"tested_on": "pilocarpine-induced seizures", "test": "Pilocarpine model of epilepsy", "type": "in vivo", "conditions": "CBDV 50 and 100 mg/kg IP; pilocarpine 380 mg/kg IP", "experimental": "Isolated CBDV was injected intra-peritoneally (IP) in the standard vehicle (1:1:18 ethanol:Cremophor:0.9%^w/v NaCl) at doses of 50, 100 and 200 mg/kg alongside animals that received vehicle alone at a matched volume. 15 minutes later methylscopolamine (1 mg/kg; to reduce peripheral muscarinic effects of pilocarpine) was administered followed, 45 minutes later by pilocarpine (380 mg/kg, IP) administration."}, "PTZ-induced seizures": {"tested_on": "PTZ-induced seizures", "test": "PTZ model of generalised seizures (80 mg/kg PTZ)", "type": "in vivo, Wistar rats", "conditions": "for proportion of animals that died / proportion of animals reaching tonic-clonic seizures: vehicle 8 of 15", "experimental": "Male Wistar rats (P24-29; 75-110 g) were used to assess the effects of the phytocannabinoid CBDV in the PTZ model of generalised seizures. Animals were habituated to the test environment, cages, injection protocol and handling prior to experimentation. Animals were housed in a room at 21° C. on a 12 hour light: dark cycle (lights on 0900) in 50% humidity, with free access to food and water.\nFive 6 L Perspex tanks with lids were placed on a single bench with dividers between them. Closed-circuit television (CCTV) cameras were mounted onto the dividers to observe rat behaviour. Sony Topica CCD cameras (Bluecherry, USA) were linked via BNC cables to a low-noise PC via Brooktree digital capture cards (Bluecherry, USA). Zoneminder (http://www.zoneminder.com) software was used to monitor rats, start and end recordings and manage video files. In-house Linux scripts were used to encode video files into a suitable format for further offline analysis using The Observer (Noldus Technologies).\nA range of doses of PTZ (50-100 mg/kg body weight) were used to determine the best dose for induction of seizures (see below). As a result, a dose of 80 mg/kg injected intra-peritoneally (IP; stock solution 50 mg/ml in 0.9% saline) were used to screen the CBDV.\nOn the day of testing, pure CBDV was administered via intra-peritoneal (i.p.) injection at doses of 50, 100 and 200 mg/kg alongside animals that were injected with a matched volume of the cannabinoid vehicle (2:1:17 ethanol:Cremophor: 0.9% w/v NaCl solution), which served as the negative control group. Animals were then observed for 1 hour, after which time they received an IP injection of 80 mg/kg PTZ. Negative vehicle controls were performed in parallel with cannabinoid-dosed subjects. After receiving a dose of PTZ, animals were observed and videoed to determine the severity of seizure and latency to several seizure behaviour types (see in vivo analysis, below). Animals were filmed for half an hour after last sign of seizure, and then returned to their cage.\nAnimals were observed during experimental procedures, but all analysis was performed offline on recorded video files using The Observer behavioural analysis software (Noldus, Netherlands). A seizure severity scoring system was used to determine the levels of seizure experienced by subjects (Pohl & Mares, 1987). All signs of seizure were detailed for all animals.\nThe latency (in seconds) from injection of PTZ to first myoclonic jerk (FMJ; score of 1), and to the animal attaining “forelimb clonus with tonic component and body twist” (score of 3.5) were recorded. FMJ is an indicator of the onset of seizure activity, whilst >90% of animals developed scores of 3.5, and so is a good marker of the development of more severe seizures. Data are presented as the mean±S.E.M. within an experimental group.\nThis is given as the median value for each experimental group based on the scoring scale below.\nThe percentage of animals within an experimental group that died as a result of PTZ-induced seizures. Note that the majority of animals that developed tonic-clonic seizures (scores of 4 and 5) died as a result, and that a score of 6 (death) automatically denotes that the animal also experienced tonic-clonic seizures.\nThis is given as the mean±S.E.M. for each experimental group.\nFor measures of latency and severity, one way analysis of variance (ANOVA) was performed on the four groups together (vehicle and 50, 100 and 200 mg/kg CBDV) to detect overall effects of CBDV (p≤0.05 considered significant).\nSignificant ANOVA results were followed by post hoc tests to test differences between vehicle and drug groups (Tukey's test, p≤0.05 considered significant).\nMethodology as described in Example 2.\nGeneral methodology is as described in Example 2.\nThree doses of THCV BDS were assessed against a concentration of PTZ known to induce moderate seizures in rats (70 mg/kg; see pilot, above). […]"}}, "note": "Marks after values point to notes of the source that are not given here."}
{"smiles": "C=C(C)[C@@H]1CCC(C)=C[C@H]1c1c(O)cc(CCC)cc1O", "note": "[CBDV, Cannabidivarin]", "values": [{"measurement": "notable side effects", "setting": "[1]", "value": "did not exhibit any notable side effects"}, {"measurement": "Incidence of Tonic convulsion", "setting": "MES-induced seizure; 50 mg/kg i.p.", "value": "9/10"}, {"measurement": "Incidence of Tonic convulsion", "setting": "MES-induced seizure; 100 mg/kg i.p.", "value": "3/10*"}, {"measurement": "Incidence of Tonic convulsion", "setting": "MES-induced seizure; 200 mg/kg i.p.", "value": "3/10*"}, {"measurement": "inhibition of the expression of hindlimb extension", "setting": "MES-induced seizure; CBDV 100 and 200 mg/kg IP", "value": "significantly inhibited"}, {"measurement": "mortality", "setting": "[2]", "value": "decreased"}, {"measurement": "proportion of animals that died", "setting": "PTZ-induced seizures; 100 mg/kg CBDV i.p., 80 mg/kg PTZ, p=0.002", "value": "1 out of 15"}, {"measurement": "proportion of animals reaching tonic-clonic seizures", "setting": "PTZ-induced seizures; 100 mg/kg CBDV i.p., 80 mg/kg PTZ, p=0.036", "value": "4 of 15"}, {"measurement": "latency to seizure onset vs vehicle", "setting": "PTZ-induced seizures; 200 mg/kg CBDV i.p. 1 hour before 80 mg/kg PTZ, p=0.03", "value": "significantly higher"}, {"measurement": "median seizure severity vs vehicle", "setting": "PTZ-induced seizures; 200 mg/kg CBDV i.p., 80 mg/kg PTZ, p=0.014", "value": "significantly lower"}, {"measurement": "latency to clonic seizures vs vehicle", "setting": "PTZ-induced seizures; 200 mg/kg CBDV i.p., 80 mg/kg PTZ, p=0.032", "value": "significant increase"}, {"measurement": "animals that experienced no seizure at all", "setting": "PTZ-induced seizures; 200 mg/kg CBDV i.p., 80 mg/kg PTZ, vehicle 1 of 15, p=0.003", "value": "5 of 15"}, {"measurement": "proportion of animals that died", "setting": "PTZ-induced seizures; 200 mg/kg CBDV i.p., 80 mg/kg PTZ, p<0.001", "value": "2 out of 15"}, {"measurement": "proportion of animals reaching tonic-clonic seizures", "setting": "PTZ-induced seizures; 200 mg/kg CBDV i.p., 80 mg/kg PTZ, p=0.01", "value": "3 of 15"}, {"measurement": "latency to tonic-clonic seizures", "setting": "PTZ-induced seizures; overall or at any specific dose (50, 100, 200 mg/kg CBDV i.p.), 80 mg/kg PTZ", "value": "No significant effect"}]}
